# According to patent publication US4195022A, “4-Desacetoxy-4α-hydroxyvinblastine and related compounds” (Eli Lilly and Company, priority 1978, dated 1980):
# Counter-ions that a name gives are not always drawn.
# How the values were obtained:
# CA755 adenocarcinoma = experiment: anti-tumor activity against transplanted adenocarcinoma 755 (CA755) in mice; type: in vivo; details: 755, intraperitoneal, 3.0 mg./kg. × 10 days
# Procedure: (§1) The compounds of this invention, as represented by Formula II above, are anti-tumor agents. […] For this determination, a protocol was used which involved the administration of the drug by the intraperitoneal route at a given dose level for 7-10 days after innoculation with the tumor or alternatively, on the first, fifth, and ninth days after innoculation.
# (§2) The following table--Table 1--give the results of several experiments in which transplanted tumors in mice were treated successfully with a compound of this invention.
# (§3) In the table, column 1 gives the name of the compound; column 2, the transplanted tumor; column 3, the dose level or dose level range and the number of days the dosage was administered; and column 4, the percent inhibition of tumor growth or percent prolongation of survival time, e.g., B16. (GLS is an abbreviation for Gardner lymphosarcoma; CA755 is an adenocarcinoma; and B16 is a melanoma.).
# B16 melanoma = experiment: anti-tumor activity against transplanted B16 melanoma in mice (prolongation of survival time); type: in vivo; details: B16, intraperitoneal; for toxic: 9.0 mg./kg. × 3 days
# Procedure: as §1, §2, §3
# [1] = test system: Chinese hamster ovary cells; experiment: mitotic inhibition in Chinese hamster ovary cells; type: cell-based
# Description: The compounds of this invention are mitotic inhibitors in Chinese hamster ovary cells.
# [2] = test system: Gardner lymphosarcoma (GLS); experiment: anti-tumor activity against transplanted Gardner lymphosarcoma (GLS) in mice; type: in vivo; details: intraperitoneal
# Procedure: as §1, §2, §3
# [3] = background statement on known alkaloids; result in words; cited from earlier work
Molecule,Percent Inhibition of tumor growth (CA755 adenocarcinoma),Percent Prolongation of Survival Time (B16 melanoma; 3.0 mg./kg. × 3 days),Percent Prolongation of Survival Time (B16 melanoma; 6.0 mg./kg. × 3 days),toxic (B16 melanoma),"minimal effective concentration ([1]; Cricetulus griseus, read-out: mitotic inhibition, activity as low as)",mitotic inhibition compared with vinblastine sulfate or 4-desacetylvinblastine ([1]; result in words),"Percent Inhibition of tumor growth ([2]; 1.5 mg./kg. × 10 days, day 7)","Percent Inhibition of tumor growth ([2]; 1.5 mg./kg. × 10 days, day 11)","Percent Inhibition of tumor growth ([2]; 3.0 mg./kg. × 10 days, day 7)","Percent Inhibition of tumor growth ([2]; 3.0 mg./kg. × 10 days, day 11)",toxic ([2]; 6.0 mg./kg. × 10 days),"Percent Inhibition of tumor growth ([2]; 6.0 mg./kg. × 10 days, day 7)",anti-cancer activity [3]
"CC[C@]1(O)C[C@@H]2CN(CCc3c([nH]c4ccccc34)[C@@](C(=O)OC)(c3cc4c(cc3OC)N(C)[C@H]3[C@@](O)(C(=O)OC)[C@@H](O)[C@]5(CC)C=CCN6CC[C@]43[C@@H]65)C2)C1 [4-Desacetoxy-4α-hydroxy-vinblastine, 4-Desacetoxy-4α-hydroxyvinblastine]",38%,65%,90%,toxic,0.01 µg/mL,roughly corresponding to that seen with either vinblastine sulfate or with 4-desacetylvinblastine,35%,25%,91%,78%,toxic,100%,
CC[C@]1(O)C[C@@H]2CN(CCc3c([nH]c4ccccc34)[C@@](C(=O)OC)(c3cc4c(cc3OC)N(C=O)[C@H]3[C@@](O)(C(=O)OC)[C@@H](O)[C@]5(CC)C=CCN6CC[C@]43[C@@H]65)C2)C1 [4-Desacetoxy-4α-hydroxy-vincristine sulfate],,,,,,,36%,29%,100%,100%,toxic,100%,
CC[C@]1(O)C[C@@H]2CN(CCc3c([nH]c4ccccc34)[C@@](C(=O)OC)(c3cc4c(cc3OC)N(C)[C@H]3[C@@](O)(C(=O)NN)[C@@H](O)[C@]5(CC)C=CCN6CC[C@]43[C@@H]65)C2)C1 [4-Desacetoxy-4α-hydroxyvinblastine C-3 carboxhydrazide],,67%,121%,toxic,,,97%,98%,100%,100%,toxic,,
CCC(=O)C[C@@H]1CN(C=O)CCc2c([nH]c3ccccc23)[C@@](C(=O)OC)(c2cc3c(cc2OC)N(C)[C@H]2[C@](O)(C(=O)OC)[C@H](OC(C)=O)[C@]4(CC)C=CCN5CC[C@]32[C@@H]54)C1 [vinamidine],,,,,,,,,,,,,chemotherapeutically-inactive
leurosine N-oxide [pleurosine],,,,,,,,,,,,,loss of anti-cancer activity
